According to patent publication US20250332392A1, “APPARATUSES AND METHODS FOR TREATMENT OF FEMALE URINARY INCONTINENCE” (THE BOARD OF REGENTS OF THE UNIVERSITY OF TEXAS SYSTEM, priority 2022, published 2025):

Tests used:
[1] = tested on: urinary incontinence (UI) episodes; experiment: clinical trial of oral sildenafil in women: UI episodes and side effects; format: in vivo
Description: In view of this, the inventors determined to develop a way to administer sildenafil directly to the muscles and structures of the pelvic floor using an intravaginal apparatus. Disclosed in the discussion that follows are example embodiments of intravaginal apparatuses that can be used for treating urinary incontinence.

[2] = clinical trial pharmacokinetics: plasma and cervicovaginal (CVF) secretion drug concentrations after oral sildenafil; format: in vivo; settings: women, oral 20 mg 3 times a day for a month
Description: A series of pharmacokinetic and safety studies were conducted in both women and sheep.

In the case of `CCCc1nn(C)c2c(=O)[nH]c(-c3cc(S(=O)(=O)N4CCN(C)CC4)ccc3OCC)nc12` [sildenafil], the side effects ([1]; women taking oral sildenafil) is reported as “flushing, visual changes, and gastrointestinal changes”, the “number of UI episodes per day” value ([1]; women taking oral sildenafil (20 mg 3 times a day for a month)) is reported as “decrease” and the “dependence of CVF secretion drug concentrations on plasma drug concentrations” value [2] is reported as “not dependent on the plasma drug concentrations”. For the same compound, the “CVF secretion drug concentrations compared with plasma drug concentrations” value ([2]; later timepoints after the last oral dose) was “higher than the plasma drug concentrations”.
